Activity calls are given as the source filed them. The calls are words filed in the database; no cut-off is given here.
What was measured:
NCI-H929 [1] = assay: Antiproliferative activity against human NCI-H929 cells with siRNA mediated IRF4#1 knockdown at 0.125 to 1 uM measured upto 5 days by MTS assay; assay type: functional, cell-based; details: dose 0.125-1 µM, time <= 5.0 day
RPMI-8226 [2] = assay: Antiproliferative activity against human RPMI-8226 cells overexpressing IRF4 at 0.125 to 1 uM measured after 72 hrs by MTS assay; assay type: functional, cell-based; details: dose 0.125-1 µM
NCI-H929 [3] = assay: Effect on IRF4 expression in human NCI-H929 cells by Western blot analysis; assay type: functional, cell-based
RPMI-8226 [4] = assay: Effect on IRF4 expression in human RPMI-8226 cells by Western blot analysis; assay type: functional, cell-based
HaCaT = assay: Effect on IRF4 expression in human HaCaT cells by Western blot analysis; assay type: functional, cell-based
NCI-H929 [5] = assay: Downregulation of CCNC expression in human NCI-H929 cells measured after 24 hrs by qRT-PCR analysis; assay type: functional, cell-based; details: dose 0.125-1 µM
NCI-H929 [6] = assay: Downregulation of CMYC expression in human NCI-H929 cells measured after 24 hrs by qRT-PCR analysis; assay type: functional, cell-based; details: dose 0.125-1 µM
NCI-H929 [7] = assay: Downregulation of HK2 expression in human NCI-H929 cells measured after 24 hrs by qRT-PCR analysis; assay type: functional, cell-based; details: dose 0.125-1 µM
NCI-H929 [8] = assay: Downregulation of Blimp1 expression in human NCI-H929 cells measured after 24 hrs by qRT-PCR analysis; assay type: functional, cell-based; details: dose 0.125-1 µM
MM.1R [9] = assay: Downregulation of CCNC expression in human MM1.R cells measured after 24 hrs by qRT-PCR analysis; assay type: functional, cell-based; details: dose 0.125-1 µM
MM.1R [10] = assay: Downregulation of HK2 expression in human MM1.R cells measured after 24 hrs by qRT-PCR analysis; assay type: functional, cell-based; details: dose 0.125-1 µM
MM.1R [11] = assay: Downregulation of Blimp1 expression in human MM1.R cells measured after 24 hrs by qRT-PCR analysis; assay type: functional, cell-based; details: dose 0.125-1 µM
NCI-H929 [12] = assay: Inhibition of AKT phosphorylation level in human NCI-H929 cells at 0.1 to 1 uM by Western blot analysis; assay type: functional, cell-based; details: dose 0.1-1 µM
NCI-H929 [13] = assay: Induction of cell cycle arrest in human NCI-H929 cells assessed as accumulation of cells at G1 phase at 0.125 uM measured after 24 hrs by flow cytometry analysis (reference value: 54.12%); assay type: functional
NCI-H929 [14] = assay: Induction of cell cycle arrest in human NCI-H929 cells assessed as accumulation of cells at G1 phase at 0.25 uM measured after 24 hrs by flow cytometry analysis (reference value: 54.12%); assay type: functional
NCI-H929 [15] = assay: Induction of cell cycle arrest in human NCI-H929 cells assessed as accumulation of cells at S phase at 0.125 uM measured after 24 hrs by flow cytometry analysis (reference value: 32.14%); assay type: functional
NCI-H929 [16] = assay: Induction of cell cycle arrest in human NCI-H929 cells assessed as accumulation of cells at S phase at 0.5 uM measured after 24 hrs by flow cytometry analysis (reference value: 32.14%); assay type: functional
NCI-H929 [17] = assay: Induction of cell cycle arrest in human NCI-H929 cells assessed as accumulation of cells at G2 phase at 0.125 uM measured after 24 hrs by flow cytometry analysis (reference value: 13.37%); assay type: functional
NCI-H929 [18] = assay: Induction of cell cycle arrest in human NCI-H929 cells assessed as accumulation of cells at G2 phase at 0.5 uM measured after 24 hrs by flow cytometry analysis (reference value: 13.37%); assay type: functional
NCI-H929 [19] = assay: Induction of cell cycle arrest in human NCI-H929 cells assessed as inhibition of cyclin E1 protein expression at 0.1 to 1 uM; assay type: functional, cell-based; details: dose 0.1-1 µM
NCI-H929 [20] = assay: Induction of cell cycle arrest in human NCI-H929 cells assessed as inhibition of CMYC protein expression at 0.1 to 1 uM; assay type: functional, cell-based; details: dose 0.1-1 µM
MM.1R [21] = assay: Induction of cell cycle arrest in human MM1.R cells assessed as inhibition of CDC2 protein expression at 0.1 to 1 uM; assay type: functional, cell-based; details: dose 0.1-1 µM
MM.1R [22] = assay: Induction of cell cycle arrest in human MM1.R cells assessed as inhibition of cyclin B1 protein expression at 0.1 to 1 uM; assay type: functional, cell-based; details: dose 0.1-1 µM
MM.1R [23] = assay: Induction of cell cycle arrest in human MM1.R cells assessed as inhibition of cyclin E1 protein expression at 0.1 to 1 uM; assay type: functional, cell-based; details: dose 0.1-1 µM
MM.1R [24] = assay: Induction of cell cycle arrest in human MM1.R cells assessed as inhibition of cyclin D1 protein expression at 0.1 to 1 uM; assay type: functional, cell-based; details: dose 0.1-1 µM
MM.1R [25] = assay: Induction of cell cycle arrest in human MM1.R cells assessed as inhibition of CMYC protein expression at 0.1 to 1 uM; assay type: functional, cell-based; details: dose 0.1-1 µM
NCI-H929 [26] = assay: Antitumor activity against human NCI-H929 cells xenografted in Balb/C nude mouse model assessed as increase in gammaH2AX expression at 25 mg/kg by Western blot analysis; assay type: functional, organism-based
NCI-H929 [27] = assay: Antitumor activity against human NCI-H929 cells xenografted in Balb/C nude mouse model assessed as inhibition of inhibition of cyclin D1 expression at 25 mg/kg by Western blot analysis; assay type: functional, organism-based
[28] = biological target: T1, Interferon regulatory factor 4 (Homo sapiens, UniProt Q15306); assay: Inhibition of IRF4 (unknown origin) incubated for 1 hr by fluorescence polarization assay
T1 sequence (Q15306 whole entry): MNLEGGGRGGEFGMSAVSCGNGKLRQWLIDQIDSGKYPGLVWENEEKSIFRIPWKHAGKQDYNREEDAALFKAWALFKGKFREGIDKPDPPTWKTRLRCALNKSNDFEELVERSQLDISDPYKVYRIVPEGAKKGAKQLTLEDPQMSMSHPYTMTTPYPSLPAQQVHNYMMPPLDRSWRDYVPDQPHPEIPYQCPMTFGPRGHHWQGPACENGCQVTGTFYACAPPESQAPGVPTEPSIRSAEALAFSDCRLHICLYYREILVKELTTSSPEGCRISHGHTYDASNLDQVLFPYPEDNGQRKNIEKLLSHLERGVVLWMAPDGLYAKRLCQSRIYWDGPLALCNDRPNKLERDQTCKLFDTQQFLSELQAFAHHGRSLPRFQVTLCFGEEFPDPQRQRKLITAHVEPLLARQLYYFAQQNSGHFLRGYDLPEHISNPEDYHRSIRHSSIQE

NCI-H929 [29] = assay: Antiproliferative activity against human NCI-H929 cells assessed as inhibition of cell viability measured after 72 hrs by MTS assay; assay type: functional, cell-based; details: NCI-H929, 72 h
[30] = Cmax in ICR mouse plasma at 1.0 mg/kg, iv; assay type: ADME, organism-based
[31] = AUC (0 to t) in ICR mouse plasma at 1.0 mg/kg, iv; assay type: ADME, organism-based
[32] = AUC (0 to infinity) in ICR mouse plasma at 1.0 mg/kg, iv; assay type: ADME, organism-based
[33] = Apparent volume of distribution in ICR mouse plasma at 1.0 mg/kg, iv; assay type: ADME, organism-based; details: read-out: Vz
[34] = Tmax in ICR mouse plasma at 10 mg/kg, po; assay type: ADME, organism-based
[35] = Cmax in ICR mouse plasma at 10 mg/kg, po; assay type: ADME, organism-based
[36] = AUC (0 to t) in ICR mouse plasma at 10 mg/kg, po; assay type: ADME, organism-based
[37] = AUC (0 to infinity) in ICR mouse plasma at 10 mg/kg, po; assay type: ADME, organism-based
[38] = Terminal elimination half life in ICR mouse plasma at 10 mg/kg, po; assay type: ADME, organism-based; details: read-out: beta t1/2 (converted)

**Q.** Which Activity (NCI-H929 [1]) does the source give for `COc1ccc(NC(=O)[C@@H](C)[C@H]2CC[C@H]3[C@@H]4C(=O)C=C5C(C)(C)C(=O)C(C#N)=C[C@]5(C)[C@H]4CC[C@]23C)cc1` here?
**A.** Active

**Q.** What about the Activity (RPMI-8226 [2]) of the same molecule?
**A.** Active

**Q.** And the Activity (NCI-H929 [3])?
**A.** Active

**Q.** And the Activity (RPMI-8226 [4])?
**A.** Active; Compound Showed Low Expression

**Q.** And the Activity (HaCaT)?
**A.** inactive

**Q.** And the Activity (NCI-H929 [5])?
**A.** Active

**Q.** What about the Activity (NCI-H929 [6]) of the same molecule?
**A.** Active

**Q.** And the Activity (NCI-H929 [7])?
**A.** Active

**Q.** And the Activity (NCI-H929 [8])?
**A.** Active

**Q.** What about the Activity (MM.1R [9]) of the same molecule?
**A.** Active

**Q.** What about the Activity (MM.1R [10]) of the same molecule?
**A.** Active

**Q.** What about the Activity (MM.1R [11]) of the same molecule?
**A.** Active

**Q.** What about the inhibition (NCI-H929 [12]) of the same molecule?
**A.** Active

**Q.** What about the Activity (NCI-H929 [13]) of the same molecule?
**A.** 57.62%

**Q.** And the Activity (NCI-H929 [14])?
**A.** 60.31%

**Q.** And the Activity (NCI-H929 [15])?
**A.** 30.67%

**Q.** What about the Activity (NCI-H929 [16]) of the same molecule?
**A.** 20.54%

**Q.** What about the Activity (NCI-H929 [17]) of the same molecule?
**A.** 11.45%

**Q.** What about the Activity (NCI-H929 [18]) of the same molecule?
**A.** 10.56%

**Q.** And the Activity (NCI-H929 [19])?
**A.** Active

**Q.** What about the Activity (NCI-H929 [20]) of the same molecule?
**A.** Active

**Q.** What about the Activity (MM.1R [21]) of the same molecule?
**A.** Active

**Q.** What about the Activity (MM.1R [22]) of the same molecule?
**A.** Active

**Q.** What about the Activity (MM.1R [23]) of the same molecule?
**A.** Active

**Q.** What about the Activity (MM.1R [24]) of the same molecule?
**A.** Active

**Q.** And the Activity (MM.1R [25])?
**A.** Active

**Q.** What about the Activity (NCI-H929 [26]) of the same molecule?
**A.** Active

**Q.** And the Activity (NCI-H929 [27])?
**A.** Active

**Q.** And the IC50 [28]?
**A.** 2.63 µM

**Q.** What about the IC50 (NCI-H929 [29]) of the same molecule?
**A.** 0.08 µM

**Q.** And the Cmax [30]?
**A.** 174 ng/mL

**Q.** What about the AUC(0-t) [31] of the same molecule?
**A.** 81 ng·h/mL

**Q.** And the AUC(0-inf) [32]?
**A.** 86 ng·h/mL

**Q.** And the Vd [33]?
**A.** 20.8 L/kg

**Q.** And the Tmax [34]?
**A.** 0.53 h

**Q.** And the Cmax [35]?
**A.** 82 ng/mL

**Q.** And the AUC(0-t) [36]?
**A.** 285 ng·h/mL

**Q.** What about the AUC(0-inf) [37] of the same molecule?
**A.** 463 ng·h/mL

**Q.** And the half-life [38]?
**A.** 6.71 h
